Assay: xn = mol fraction of the nth substance listed
Conditions: 100 kPa

CS(C)=O + NC(C)C(=O)[O-].COCCCCN1C=[N+](C=C1)C
x2 = 0
Conditions	viscosity [mPa·s]
288.15 K	2.47
293.15 K	2.21
298.15 K	1.99
303.15 K	1.81
313.15 K	1.51
318.15 K	1.39

COCCCC[n+]1ccn(C)c1.NCC(=O)[O-] + CS(C)=O
viscosity [mPa·s]
Conditions	x1 = 0.1009	x1 = 0.1984	x1 = 0.299	x1 = 0.3986	x1 = 0.4986	x1 = 0.6006	x1 = 0.701	x1 = 0.7941	x1 = 0.907	x1 = 1
288.15 K	7.64	11.87	20.11	32.75	–	66.91	88.2	112	149.9	180.6
293.15 K	6.23	9.49	15.68	24.97	–	–	66.19	–	110.8	130.1
298.15 K	5.05	7.6	12.46	19.85	29.5	40.49	52.63	–	83.6	–
303.15 K	–	6.27	–	15.9	23.66	32.57	42.38	52.54	65.49	74.4
308.15 K	–	5.29	–	13.2	19.51	26.99	–	42.67	52.32	58.09
313.15 K	3.15	4.59	7.18	11.14	16.4	22.63	29.37	35.24	42.06	46.29
318.15 K	–	3.92	6.04	9.3	13.46	18.67	23.75	28.16	32.95	36.43

CS(C)=O + COCCCC[n+]1ccn(C)c1.NCC(=O)[O-]
x2 = 0
Conditions	viscosity [mPa·s]
288.15 K	2.47
293.15 K	2.21
298.15 K	1.99
303.15 K	1.81
313.15 K	1.51
318.15 K	1.39

CC(N)C(=O)[O-].COCCCCn1cc[n+](C)c1 + CS(C)=O
viscosity [mPa·s]
Conditions	x1 = 0.1009	x1 = 0.1996	x1 = 0.3012	x1 = 0.3985	x1 = 0.4922	x1 = 0.5996	x1 = 0.6966	x1 = 0.7973	x1 = 0.8997	x1 = 1
288.15 K	8.27	–	–	40.5	63.89	–	135.6	203	–	403
293.15 K	7.89	–	–	31.54	48.62	72	100.9	143.7	206	–
298.15 K	6.04	–	15.05	24.76	36.87	53.3	73	101.8	142.7	180.6
303.15 K	4.95	–	12.31	19.81	29.28	–	56.62	77.6	107.6	132.1
308.15 K	4.21	6.25	10.23	–	23.47	–	–	–	80.8	98.3
313.15 K	3.64	5.27	8.32	13.02	18.84	26.78	–	47.36	61.67	73.5
318.15 K	–	4.57	7.01	10.65	–	–	28.53	–	47.83	55.86

Source: a compilation of properties of binary mixtures (doi:10.1016/j.molliq.2022.119918)
